Consider five compounds from patent publication US10188758B2, “Organic compounds” (INTRA-CELLULAR THERAPIES, INC., priority 2015, dated 2019).

Entries after “also recorded” stand apart in the source; their conditions may differ.

The target in assay [1] is human SERT (Homo sapiens (Human), UniProt P31645). Kind of assay: Novascreen Serotonin, Transporter SERT (h) binding, platelets, [3H]Citalopram, N-Methyl. From the text:
(§1) The NET and SERT binding may be assayed to determine if the compounds of the disclosure specifically bind to NET or SERT. An exemplary procedure for assaying NET binding may be found in Raisman et al., Eur. Jrnl. Pharmacol. (1982) 78:345-351 and in Langer et al., Eur. Jrnl. Pharmac. (1981) 72:423. An exemplary procedure for assaying SERT binding may be found in D'Amato et al., Jrnl. Pharmcacol. & Exp. Ther. (1987) 242:364-371 and in Brown et al., Eur. Jrnl. Pharmac. (1986) 123:161-165. The contents of each of these references are incorporated by reference in their entirety.
(§2) The binding affinity of the compounds of the current disclosure is measured using a Novascreen against rodent NET, human NET and human SERT. Duloxetine is used as a positive control. Details of the Novascreen may be found in the following: • http://www.perkinelmer.com/Catalog/Product/ID/100-0123, • http://www.perkinelmer.com/Catalog/Product/ID/100-0048, • http://www.perkinelmer.com/Catalog/Product/ID/100-0146, and • http://www.perkinelmer.com/Catalog/Product/ID/100-0099.
For the binding affinity of the compounds of the current disclosure for SERT, the following paramenters are used: • Assay Name: Serotonin, Transporter SERT (h) • Assay Type: Binding • Species: Human • Origin: Platelets • Ligand: [3H]Citalopram, N-Methyl • Ligand [M]: 7.00E-10 • Kd (Binding Affinity): 2.50E-09 • Bmax: 425 fmol/mg protein • Method: Radioactivity • Measurement: DPM

The target of assay [2] is human NET (Homo sapiens (Human), UniProt P23975). Kind of assay: Novascreen Norepinephrine, Transporter NET (h) binding, recombinant CHO cells, [3H]-Nisoxetine.
Text: as §1, §2
For the binding affinity of the compounds of the current disclosure against NET, the following paramenters are used: • Assay Type: Binding • Species: Rat • Origin: Forebrain • Ligand: [3H]-Nisoxetine • Ligand [M]: 1.00E-09 • Kd (Binding Affinity): 9.00E-10 • Bmax: 10.5 fmol/mg tissue (wet weight) • Method: Radioactivity • Measurement: DPM • Assay Name: Norepinephrine, Transporter NET (h) • Assay Type: Binding • Species: Human • Origin: Recombinant/CHO cells • Ligand: [3H]-Nisoxetine • Ligand [M]: 1.00E-09 • Kd (Binding Affinity): 3.00E-09 • Bmax: 10 pmol/mg protein • Method: Radioactivity • Measurement: DPM

The test system of assay [3] is naloxone-induced flush. Kind of assay: Morphine-dependent rat model of hot flashes (naloxone-induced flush, tail skin temperature). It counts as in vivo. Particulars: 30 mg/kg p.o., FIG. 1. From the text: Morphine-dependent Rat Model: The effectiveness of the compounds of the present disclosure to reduce hot flashes may be evaluated by measuring its ability to reduce morphine-induced rise in TST. Ovariectomized rats may be subcutaneously injected with a vehicle (sterile water) once daily for 8 days. On day-4, two tablets of slow-release morphine may be implanted subcutaneously in the dorsal scapular region of the rats to induce morphine dependence. On day-5 and -6, morphine withdrawal may be induced by subcutaneous administration of 1.0 mg/Kg of naloxone, a general opioid antagonist. […] Ketamine (40 mg/Kg) may be injected after test compound to induce sedation so as to avoid temperature fluctuation due to stress associated with restriction of their movement and attachment of thermistor probe to the their tails. All drug- related effects may be compared to a vehicle control group which also receives ketamine. TST may be monitored continuously for 35 minutes. The average TST measured 25, 30 and 35 minutes prior to naloxone injection may be used to establish a baseline temperature. Hot flash reduction may be determined by evaluating the statistical differences between the baseline temperature and 15 minutes after naloxone treatment when the change in TST may be observed to be maximum.

human NET, sequence (P23975 whole entry): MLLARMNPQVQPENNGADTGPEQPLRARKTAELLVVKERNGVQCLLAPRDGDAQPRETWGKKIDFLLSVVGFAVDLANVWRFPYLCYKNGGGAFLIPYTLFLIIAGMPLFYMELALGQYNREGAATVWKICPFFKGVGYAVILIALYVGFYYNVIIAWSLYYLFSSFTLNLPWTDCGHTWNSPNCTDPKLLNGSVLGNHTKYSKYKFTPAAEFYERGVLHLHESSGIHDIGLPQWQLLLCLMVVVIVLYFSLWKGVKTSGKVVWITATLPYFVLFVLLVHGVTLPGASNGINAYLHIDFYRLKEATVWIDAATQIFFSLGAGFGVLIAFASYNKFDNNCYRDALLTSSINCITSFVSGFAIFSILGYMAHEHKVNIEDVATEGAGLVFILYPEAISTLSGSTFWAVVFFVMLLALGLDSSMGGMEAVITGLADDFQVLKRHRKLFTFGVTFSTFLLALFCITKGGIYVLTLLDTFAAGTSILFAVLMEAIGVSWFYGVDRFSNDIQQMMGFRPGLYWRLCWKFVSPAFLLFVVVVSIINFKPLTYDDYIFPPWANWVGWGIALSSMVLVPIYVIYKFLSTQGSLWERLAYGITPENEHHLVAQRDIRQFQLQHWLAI
human SERT, sequence (P31645 whole entry): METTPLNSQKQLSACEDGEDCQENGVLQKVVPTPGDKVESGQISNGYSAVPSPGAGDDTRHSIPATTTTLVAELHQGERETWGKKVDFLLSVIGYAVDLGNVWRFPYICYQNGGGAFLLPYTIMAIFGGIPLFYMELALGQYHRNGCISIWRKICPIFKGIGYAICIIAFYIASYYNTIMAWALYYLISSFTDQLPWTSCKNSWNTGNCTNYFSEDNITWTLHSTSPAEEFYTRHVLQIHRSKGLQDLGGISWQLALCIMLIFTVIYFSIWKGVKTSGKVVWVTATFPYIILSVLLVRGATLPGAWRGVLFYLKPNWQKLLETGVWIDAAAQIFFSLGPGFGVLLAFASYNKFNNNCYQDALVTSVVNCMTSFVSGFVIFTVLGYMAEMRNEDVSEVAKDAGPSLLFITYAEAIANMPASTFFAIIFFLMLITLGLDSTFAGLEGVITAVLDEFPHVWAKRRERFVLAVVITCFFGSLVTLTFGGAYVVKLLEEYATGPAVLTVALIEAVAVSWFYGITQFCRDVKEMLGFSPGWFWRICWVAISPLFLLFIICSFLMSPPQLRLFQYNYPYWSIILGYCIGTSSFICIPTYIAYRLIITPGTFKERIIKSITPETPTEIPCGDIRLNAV

Regarding `CCNCC[C@@H](Oc1cccnc1OC)c1ccccc1` [Compound 4, (R)-N-ethyl-3-(2-methoxypyridin-3-yloxy)-3-phenylpropan-1-amine], the Ki in assay [1] came out at 240 nM; in assay [2], 81.4 nM.
On the same counts, the results for `CCNCC[C@@H](Oc1cccnc1OCC)c1ccccc1` [Compound 5, (R)-3-(2-ethoxypyridin-3-yloxy)-N-ethyl-3-phenylpropan-1-amine] are 579 nM and 37.3 nM.
Regarding `CNCC[C@@H](Oc1cccnc1OCCO)c1ccccc1` [Example 1, (R)-2-(3-(3-(Methylamino)-1-phenylpropoxy)pyridin-2-yloxy)ethanol], in assay [2], the inhibitory constant (Ki) amounted to 39 nM.
Same read-out and setting: next, `CCOc1ncccc1O[C@H](CCN)c1ccccc1` [Example 2, (R)-3-Phenyl-3-(2-ethoxypyridin-3-yloxy)propan-1-amine]: 69 nM.
For the compound `CCOc1ncccc1O[C@H](CCNC)c1ccccc1` [Example 3, (R)-3-(2-Ethoxypyridin-3-yloxy)-N-methyl-3-phenylpropan-1-amine], the inhibition constant (Ki) in assay [1] turned out to be 318 nM; in assay [2], 4.2 nM. Further, the “reduction of naloxone-induced flush” value in assay [3] is given as “effective in reducing naloxone-induced flush; also recorded: effective in reducing naloxone-inducted flush”.

Usually Ki stands for the dissociation constant of the complex between target and ligand, obtained from inhibition or displacement.
